Experimental data from the NIST ThermoML archive (doi:10.1016/j.fluid.2005.12.003).

Conditions: 101.33 kPa, Liquid

CCCCn1cc[n+](C)c1.F[P-](F)(F)(F)(F)F [1-butyl-3-methylimidazolium hexafluorophosphate]
Conditions | mass density [kg/m3]
283.13 K | 1380.43
293.12 K | 1372.15
293.3 K | 1371.88
302.83 K | 1363.87
303.3 K | 1363.48
312.68 K | 1355.45
313.17 K | 1355.18
322.64 K | 1347.23
323.23 K | 1346.72
332.56 K | 1338.7
333.66 K | 1337.95
342.41 K | 1330.79
343.27 K | 1329.87
